Laboratory results as given in ChEMBL document CHEMBL5247653, “Discovery of Clinical Candidate ACT-777991, a Potent CXCR3 Antagonist for Antigen-Driven and Inflammatory Pathologies” (J Med Chem, 2023).
In brackets after ≈: the same amount, converted by molar mass. Activity calls are given as the source filed them. The calls are words filed in the database; no cut-off is given here.

Columns and labels:
[1] = Drug excretion in urine of Wistar rat assessed as unchanged drug at 1 mg/kg, iv; type: ADME, organism-based; conditions: read-out: Drug excretion
[2] = target: CYP2D6 (Homo sapiens, UniProt P10635); assay: […] recombinant human CYP2D6 mediated drug metabolism in human liver microsomes assessed as intrinsic clearance at 1 uM incubated for 45 mins in presence of NADPH regenerating system by LC-MS/MS analysis; type: ADME, Microsome; conditions: recombinant human CYP2D6, read-out: CLH
Sequence of CYP2D6 (P10635 whole entry): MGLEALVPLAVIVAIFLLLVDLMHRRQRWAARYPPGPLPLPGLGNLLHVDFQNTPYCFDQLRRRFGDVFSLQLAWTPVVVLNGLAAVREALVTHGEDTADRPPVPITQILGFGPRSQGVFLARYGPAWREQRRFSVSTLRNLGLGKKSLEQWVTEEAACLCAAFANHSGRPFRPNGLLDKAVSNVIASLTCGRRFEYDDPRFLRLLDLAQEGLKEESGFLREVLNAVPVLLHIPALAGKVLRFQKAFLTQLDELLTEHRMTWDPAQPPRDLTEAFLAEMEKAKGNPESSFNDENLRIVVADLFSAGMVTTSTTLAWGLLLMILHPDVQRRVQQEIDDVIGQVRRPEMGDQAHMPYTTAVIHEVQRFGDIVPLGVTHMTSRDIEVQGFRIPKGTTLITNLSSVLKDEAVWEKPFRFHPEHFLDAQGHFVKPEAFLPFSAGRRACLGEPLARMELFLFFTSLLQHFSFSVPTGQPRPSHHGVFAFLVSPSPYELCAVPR

[3] = In vivo inhibition of hERG in iv dosed dog assessed as increase in QTc interval; type: toxicity, organism-based, Canis lupus familiaris
[4] = Apparent permeability across apical to basolateral side in dog MDCK-II cells; type: ADME, cell-based, Canis lupus familiaris
[5] = AUC (0 to last) in Beagle dog at 2.5 mg/kg,iv or 2.5 mg/kg, po; type: ADME, organism-based, Canis lupus familiaris; design: dose 2.5 mg/kg, route iv; conditions: in vivo
[6] = Metabolic stability in dog hepatocyte assessed as M3 metabolite formation at 1 uM and measured upto 15 mins in presence of NADPH regenerating system by LC-MS/MS analysis; type: ADME, cell-based, Canis lupus familiaris; conditions: hepatocytes, 0.25 h
[7] = Protein binding in human plasma assessed as fraction unbound at 1 uM incubated for 6 hrs by rapid equilibrium dialysis based LC-MS/MS analysis; type: ADME, cell-free
[8] = Genotoxicity in Salmonella typhimurium TA98 at 5000 ug in presence of S9 fraction; type: toxicity, subcellular, Salmonella enterica subsp. enterica serovar Typhimurium; conditions: dose 5000 µg
[9] = Tmax in Beagle dog at 2.5 mg/kg,iv or 2.5 mg/kg, po; type: ADME, organism-based, Canis lupus familiaris; conditions: in vivo
[10] = Metabolic stability in human hepatocyte assessed as M4 metabolite formation at 1 uM and measured upto 15 mins in presence of NADPH regenerating system by LC-MS/MS analysis; type: ADME, cell-based; conditions: hepatocytes, 0.25 h
[11] = target: N-formyl peptide receptor 2 (Homo sapiens) (UniProt P25090); assay: Binding affinity to FPR2 (unknown origin) at 10 uM by radioligand binding assay
Sequence of N-formyl peptide receptor 2 (Homo sapiens) (P25090 whole entry): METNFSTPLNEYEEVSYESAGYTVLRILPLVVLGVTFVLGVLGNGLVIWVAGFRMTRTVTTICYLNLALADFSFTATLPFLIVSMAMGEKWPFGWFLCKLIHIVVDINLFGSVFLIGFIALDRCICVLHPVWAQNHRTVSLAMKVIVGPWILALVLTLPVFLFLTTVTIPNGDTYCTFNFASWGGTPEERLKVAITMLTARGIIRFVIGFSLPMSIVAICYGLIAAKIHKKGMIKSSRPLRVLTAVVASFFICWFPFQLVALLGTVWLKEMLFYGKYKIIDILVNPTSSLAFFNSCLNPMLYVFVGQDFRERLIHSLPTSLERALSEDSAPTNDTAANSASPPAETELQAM

[12] = target: C-X-C chemokine receptor type 5 (Homo sapiens) (UniProt P32302); assay: Binding affinity to CXCR5 (unknown origin) at 10 uM by radioligand binding assay
Sequence of C-X-C chemokine receptor type 5 (Homo sapiens) (P32302 whole entry): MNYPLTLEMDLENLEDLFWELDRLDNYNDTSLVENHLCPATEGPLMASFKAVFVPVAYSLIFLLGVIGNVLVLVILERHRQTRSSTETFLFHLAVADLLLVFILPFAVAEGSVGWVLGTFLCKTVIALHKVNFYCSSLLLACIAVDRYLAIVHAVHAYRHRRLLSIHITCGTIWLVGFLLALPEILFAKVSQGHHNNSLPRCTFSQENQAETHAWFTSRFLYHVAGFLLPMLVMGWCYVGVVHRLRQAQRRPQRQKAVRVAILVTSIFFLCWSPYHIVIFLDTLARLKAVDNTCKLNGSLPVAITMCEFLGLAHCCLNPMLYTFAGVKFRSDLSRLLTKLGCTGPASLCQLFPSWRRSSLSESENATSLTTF

[13] = target: Cytochrome P450 2D6 (Homo sapiens, UniProt P10635); assay: Time dependent inhibition of CYP2D6 (unknown origin); type: ADME
Sequence of Cytochrome P450 2D6 (P10635 whole entry): as the sequence (P10635 whole entry) above

[14] = Volume of distribution at steady state in Wistar rat at 3 mg/kg,iv or 3 mg/kg, po; type: ADME, organism-based; conditions: in vivo, read-out: Vdss
[15] = target: hERG (KCNH2) (Homo sapiens, UniProt Q12809); assay: (§1) Inhibition of human ERG K+ currents by GLP assay; type: toxicity; conditions: human
Sequence of hERG (KCNH2) (Q12809 whole entry): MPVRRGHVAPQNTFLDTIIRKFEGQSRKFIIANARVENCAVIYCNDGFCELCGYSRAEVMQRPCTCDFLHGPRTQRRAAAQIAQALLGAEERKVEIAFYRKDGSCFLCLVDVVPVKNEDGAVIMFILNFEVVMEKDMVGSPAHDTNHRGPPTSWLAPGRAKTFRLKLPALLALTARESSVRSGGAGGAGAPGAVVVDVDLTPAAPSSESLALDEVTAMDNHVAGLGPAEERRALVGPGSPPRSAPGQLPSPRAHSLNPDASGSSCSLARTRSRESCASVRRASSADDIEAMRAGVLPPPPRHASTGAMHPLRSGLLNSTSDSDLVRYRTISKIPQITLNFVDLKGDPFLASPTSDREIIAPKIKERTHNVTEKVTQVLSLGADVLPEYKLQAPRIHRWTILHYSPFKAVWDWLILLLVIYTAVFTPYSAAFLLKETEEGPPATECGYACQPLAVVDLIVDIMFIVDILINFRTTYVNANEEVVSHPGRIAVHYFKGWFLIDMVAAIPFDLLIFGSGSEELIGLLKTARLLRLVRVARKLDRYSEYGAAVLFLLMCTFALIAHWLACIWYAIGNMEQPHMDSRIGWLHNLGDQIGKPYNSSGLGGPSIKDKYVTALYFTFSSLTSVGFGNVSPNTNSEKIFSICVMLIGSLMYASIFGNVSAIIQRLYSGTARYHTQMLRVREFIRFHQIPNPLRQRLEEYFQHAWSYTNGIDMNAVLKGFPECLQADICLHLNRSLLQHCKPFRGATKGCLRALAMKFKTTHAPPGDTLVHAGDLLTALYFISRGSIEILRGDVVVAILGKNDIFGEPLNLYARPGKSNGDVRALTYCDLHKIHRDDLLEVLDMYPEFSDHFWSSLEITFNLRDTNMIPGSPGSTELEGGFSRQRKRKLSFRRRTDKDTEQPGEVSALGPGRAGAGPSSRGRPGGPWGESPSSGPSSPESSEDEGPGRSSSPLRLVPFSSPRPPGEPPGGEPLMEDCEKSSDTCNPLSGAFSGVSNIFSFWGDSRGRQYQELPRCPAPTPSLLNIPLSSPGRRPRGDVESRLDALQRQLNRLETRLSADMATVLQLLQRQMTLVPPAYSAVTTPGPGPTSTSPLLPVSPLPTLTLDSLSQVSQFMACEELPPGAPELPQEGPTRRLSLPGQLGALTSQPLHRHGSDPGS

[16] = target: Voltage-gated inwardly rectifying potassium channel KCNH2 (Homo sapiens, UniProt Q12809); assay: as §1; type: toxicity
Sequence of Voltage-gated inwardly rectifying potassium channel KCNH2 (Q12809 whole entry): as above

[17] = Cmax in Beagle dog at 2.5 mg/kg,iv or 2.5 mg/kg, po; type: ADME, organism-based, Canis lupus familiaris; design: dose 2.5 mg/kg, route iv; conditions: in vivo
[18] = Cmax in LPS-induced DBA/1 mouse plasma at 0.006 microg/g, po bid preincubated for 3 days followed by LPS stimulation for 30 mins and measured after 72 hrs by flow cytometry; type: ADME, organism-based; design: dose 0.006 µg/g, time 6 day, route po; conditions: 0.006 µg/g
[19] = target: T1, C-X-C chemokine receptor type 3 (Homo sapiens) (UniProt P49682); assay: Binding affinity to human CXCR3 expressed in CHO-K1 cell membrane assessed as […] (Kon) using tritium-labeled ligand by […] assay; type: cell membranes; conditions: filed as antagonist
T1 sequence (whole entry): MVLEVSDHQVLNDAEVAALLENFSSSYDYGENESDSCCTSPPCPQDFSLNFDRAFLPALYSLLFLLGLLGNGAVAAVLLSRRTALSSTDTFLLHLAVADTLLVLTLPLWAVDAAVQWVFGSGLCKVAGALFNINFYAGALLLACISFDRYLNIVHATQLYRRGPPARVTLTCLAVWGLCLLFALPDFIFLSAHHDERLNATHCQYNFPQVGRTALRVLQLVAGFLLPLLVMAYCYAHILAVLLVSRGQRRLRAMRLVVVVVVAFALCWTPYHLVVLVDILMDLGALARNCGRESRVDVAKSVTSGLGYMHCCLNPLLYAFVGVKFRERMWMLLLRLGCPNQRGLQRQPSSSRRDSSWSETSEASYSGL

[20] = target: Cytochrome P450 2C9 (Homo sapiens, UniProt P11712); assay: Competitive inhibition of CYP2C9 (unknown origin); type: ADME
Sequence of Cytochrome P450 2C9 (P11712 whole entry): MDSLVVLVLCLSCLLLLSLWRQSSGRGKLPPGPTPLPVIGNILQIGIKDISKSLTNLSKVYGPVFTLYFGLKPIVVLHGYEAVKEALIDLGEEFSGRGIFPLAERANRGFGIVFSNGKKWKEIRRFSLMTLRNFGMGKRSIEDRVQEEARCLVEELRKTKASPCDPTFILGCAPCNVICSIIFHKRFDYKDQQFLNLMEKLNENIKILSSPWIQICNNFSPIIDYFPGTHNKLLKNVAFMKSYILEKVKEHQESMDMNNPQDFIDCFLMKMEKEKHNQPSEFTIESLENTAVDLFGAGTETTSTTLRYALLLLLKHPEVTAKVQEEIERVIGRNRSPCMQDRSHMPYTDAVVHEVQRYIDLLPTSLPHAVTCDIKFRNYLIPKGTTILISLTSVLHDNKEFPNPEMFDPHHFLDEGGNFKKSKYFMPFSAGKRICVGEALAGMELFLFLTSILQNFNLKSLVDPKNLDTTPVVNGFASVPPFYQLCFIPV

[21] = Clearance in Cynomolgus monkey at 1.0 mg/kg,iv or 1.25 mg/kg, po; type: ADME, organism-based, Macaca fascicularis; conditions: in vivo
[22] = Oral bioavailability in Cynomolgus monkey at 1.25 mg/kg; type: ADME, organism-based, Macaca fascicularis; conditions: in vivo
[23] = Metabolic stability in rat hepatocytes assessed as intrinsic clearance per 10^6 cells at 1 uM by LC-MS/MS analysis; type: ADME, cell-based, Hepatocyte
[24] = In vivo inhibition of hERG in po dosed dog assessed as increase in QTc interval; type: toxicity, organism-based, Canis lupus familiaris
[25] = target: CYP3A4 (Homo sapiens, UniProt P08684); assay: […] recombinant human CYP3A4 mediated drug metabolism in human liver microsomes assessed as intrinsic clearance at 1 uM incubated for 45 mins in presence of NADPH regenerating system by LC-MS/MS analysis; type: ADME, Microsome; conditions: read-out: CLH
Sequence of CYP3A4 (P08684 whole entry): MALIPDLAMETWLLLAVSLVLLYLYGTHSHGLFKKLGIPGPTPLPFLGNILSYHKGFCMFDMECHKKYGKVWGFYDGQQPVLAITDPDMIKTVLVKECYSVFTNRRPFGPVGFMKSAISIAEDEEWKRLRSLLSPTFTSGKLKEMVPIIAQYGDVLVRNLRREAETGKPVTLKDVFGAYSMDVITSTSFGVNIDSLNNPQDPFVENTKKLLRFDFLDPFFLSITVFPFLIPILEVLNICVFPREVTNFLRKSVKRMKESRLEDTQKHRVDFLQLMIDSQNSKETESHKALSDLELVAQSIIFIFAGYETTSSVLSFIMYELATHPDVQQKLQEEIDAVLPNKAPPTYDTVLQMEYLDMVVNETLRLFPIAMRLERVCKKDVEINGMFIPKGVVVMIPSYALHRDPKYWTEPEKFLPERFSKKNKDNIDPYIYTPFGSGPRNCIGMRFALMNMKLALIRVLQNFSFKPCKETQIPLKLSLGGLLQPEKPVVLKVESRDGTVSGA

[26] = target: T2, C-X-C chemokine receptor type 3 (Mus musculus, UniProt O88410); assay: Antagonist activity at mouse CXCR3 expressed in CHO-K1 cells assessed as reduction in CXCL10 induced calcium flux by FLIPR method; type: cell-based
T2 sequence (O88410 whole entry): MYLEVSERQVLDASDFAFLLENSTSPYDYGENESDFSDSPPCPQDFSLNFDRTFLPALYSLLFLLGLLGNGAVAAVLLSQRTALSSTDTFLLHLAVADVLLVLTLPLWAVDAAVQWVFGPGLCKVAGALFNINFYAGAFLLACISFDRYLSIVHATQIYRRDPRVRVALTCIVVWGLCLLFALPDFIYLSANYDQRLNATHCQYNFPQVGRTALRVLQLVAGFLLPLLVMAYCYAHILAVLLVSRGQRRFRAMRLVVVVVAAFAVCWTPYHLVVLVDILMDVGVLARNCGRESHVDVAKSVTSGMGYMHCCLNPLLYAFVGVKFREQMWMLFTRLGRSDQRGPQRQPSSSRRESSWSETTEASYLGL

[27] = Unbound clearance in Beagle dog plasma at 1 mg/kg, iv; type: ADME, organism-based, Canis lupus familiaris; conditions: in vivo
[28] = Total clearance in Beagle dog plasma at 1 mg/kg, iv; type: ADME, organism-based, Canis lupus familiaris
[29] = target: T3, C-X-C chemokine receptor type 3 (Homo sapiens, UniProt P49682); assay: Antagonist activity at CXCR3 (unknown origin) in human T cells in venous blood assessed as receptor internalization incubated for 30 mins in presence of CXCL10 by flow cytometric analysis; type: cell-based, T cell
T3 sequence (P49682 whole entry): T1 sequence (whole entry)

[30] = AUC (0 to last) in Wistar rat at 3 mg/kg,iv or 3 mg/kg, po; type: ADME, organism-based; design: dose 3 mg/kg, route iv; conditions: in vivo
[31] = Metabolic stability in rat liver microsomes assessed as intrinsic clearance at 1 uM and measured upto 15 mins in presence of NADPH regenerating system by LC-MS/MS analysis; type: ADME, Microsome; conditions: read-out: CLH
[32] = target: C-X-C chemokine receptor type 3 (Canis lupus familiaris, UniProt Q5KSK8); assay: Antagonist activity at dog CXCR3 expressed in CHO-K1 cells assessed as reduction in CXCL10 induced calcium flux by FLIPR method; type: cell-based
Sequence of C-X-C chemokine receptor type 3 (Canis lupus familiaris, UniProt Q5KSK8) (Q5KSK8 whole entry): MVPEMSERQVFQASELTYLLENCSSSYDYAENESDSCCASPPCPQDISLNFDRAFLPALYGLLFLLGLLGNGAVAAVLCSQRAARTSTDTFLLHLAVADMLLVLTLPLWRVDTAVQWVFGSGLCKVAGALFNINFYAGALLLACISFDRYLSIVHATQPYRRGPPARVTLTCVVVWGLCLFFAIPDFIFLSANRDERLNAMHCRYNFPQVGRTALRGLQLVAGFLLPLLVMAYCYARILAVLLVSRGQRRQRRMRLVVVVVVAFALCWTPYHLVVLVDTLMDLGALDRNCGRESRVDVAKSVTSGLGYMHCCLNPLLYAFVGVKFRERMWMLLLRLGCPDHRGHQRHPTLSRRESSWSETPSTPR

Cc1ncn(CC(=O)N2CCN(c3sc(C(F)(F)F)nc3-c3cnc(C(F)(F)F)nc3)C[C@H]2CCO)n1
dose excreted [1]: 4.4%
microsomal CLint at 1 µM [2]: < 0.04 µL/min/mg
inhibition (INH) [3]: Toxic
Papp A→B [4]: 1.5 ×10⁻⁶ cm/s
AUC(0-t) [5]: 3910 ng·h/mL
Stability [6]: Unstable
fraction unbound at 6 h, 1 µM [7]: 0.23
Activity [8]: Non-Toxic
Tmax [9]: 24 min
Stability [10]: Unstable
Activity [11]: inactive
Activity [12]: inactive
IC50 [13]: > 50000 nM
Vd [14]: 2.7 L/kg
IC20 [15]: 3 µg/mL (≈ 5.45 µM)
IC50 [16]: 15400 nM
Cmax [17]: 910 ng/mL
Cmax [18]: 42 ng/mL
ka [19]: 6.6 10^6/M/s
IC50 [20]: > 50000 nM
clearance [21]: 5.3 mL/min/kg
bioavailability [22]: 92%
CLH [23]: < 2 µL/min/mg
inhibition (INH) [24]: Toxic
microsomal CLint at 1 µM [25]: < 0.04 µL/min/mg
IC50 [26]: 1.5 nM
CL free [27]: 15 mL/min/kg
clearance [28]: 5 mL/min/kg
IC50 [29]: 56.3 nM
AUC(0-t) [30]: 4210 ng·h/mL
microsomal CLint at 1 µM [31]: < 10 µL/min/mg
IC50 [32]: 2.8 nM
